These results are taken from patent US10221179B2, “Substituted pyrazoloquinazolinones and pyrroloquinazolinones as allosteric modulators of group II metabotropic glutamate receptors” (DOMAIN THERAPEUTICS, priority 2014, dated 2019).

pIC50: −log10 of the molar value. Where only a bound is given, the exact number is not on record here.

The target in the first data set is T1, human mGluR2 (hmGluR2) (Homo sapiens, UniProt Q14416).
T1 construct: expressed in transfected cells; host or cells: HEK-293 cells, transient co-transfection by electroporation
T1 sequence (Q14416 19-872): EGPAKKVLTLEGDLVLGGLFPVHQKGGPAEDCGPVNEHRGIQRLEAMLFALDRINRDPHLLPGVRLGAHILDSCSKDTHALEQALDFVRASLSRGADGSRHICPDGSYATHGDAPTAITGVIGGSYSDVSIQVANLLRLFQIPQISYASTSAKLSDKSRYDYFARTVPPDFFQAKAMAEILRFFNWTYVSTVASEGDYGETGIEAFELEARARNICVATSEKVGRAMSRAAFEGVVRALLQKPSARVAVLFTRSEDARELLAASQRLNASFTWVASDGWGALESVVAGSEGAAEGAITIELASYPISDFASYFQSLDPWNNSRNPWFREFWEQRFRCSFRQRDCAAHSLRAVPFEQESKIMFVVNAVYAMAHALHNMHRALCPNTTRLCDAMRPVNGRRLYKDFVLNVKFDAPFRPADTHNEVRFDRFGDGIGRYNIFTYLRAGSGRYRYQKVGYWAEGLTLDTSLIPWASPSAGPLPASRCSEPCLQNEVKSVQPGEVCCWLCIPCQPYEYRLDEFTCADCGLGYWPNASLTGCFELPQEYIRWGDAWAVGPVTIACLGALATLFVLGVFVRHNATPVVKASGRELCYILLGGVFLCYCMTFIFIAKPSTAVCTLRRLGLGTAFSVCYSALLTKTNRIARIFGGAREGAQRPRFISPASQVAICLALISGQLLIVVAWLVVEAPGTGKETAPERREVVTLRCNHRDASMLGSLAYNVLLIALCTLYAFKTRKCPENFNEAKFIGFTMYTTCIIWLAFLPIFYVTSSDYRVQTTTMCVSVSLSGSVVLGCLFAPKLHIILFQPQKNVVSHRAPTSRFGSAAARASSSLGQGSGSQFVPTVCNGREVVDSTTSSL
In words: Ca++ functional assay, human mGluR2 transiently over-expressed in HEK-293 cells (agonist and negative allosteric modulator modes). Type of data set: cell-based. The conditions noted are these: glutamate at EC80, intracellular calcium (Fluo4AM), read-out: hmGluR2 negative allosteric modulator activity IC50. The protocol: Example 127: Human mGluR2 and mGluR3 Evaluation Using Ca^++ Functional Assay
Examples of the present invention were tested successively for their agonist and negative allosteric modulator activities on human mGluR2 (hmGluR2) and mGluR3 (hmGluR3) transiently over-expressed in HEK-293 cells.
Cell Culture and Transfection
HEK-293 cells are maintained in Modified Eagle's Medium supplemented with 10% Foetal Calf Serum, 1% Penicillin/Streptomycin and 1% non-essential amino acids at 37° C./5% CO2.
Cells are co-transfected by electroporation with four DNA plasmids encoding hmGluR2 or hmGluR3, a chimeric G protein allowing redirection of the activation signal to intracellular calcium pathway (Brabet I et al., Neuropharmacology 37(8), 1043-51, 1998), and two glutamate transporters minimizing receptor desensitization by endogenous glutamate. After transfection, cells are cultured for 24 h at 37° C./5% CO2.
Calcium Assay IC50 Determination
Receptor activity is detected by changes in intracellular calcium measured using the fluorescent Ca^2+ sensitive dye, Fluo4AM (Molecular Probes).
On the day of the assay, culture medium is aspirated and replaced during 3 hours by medium without serum supplemented with 1% Glutamax, 1% Penicillin/Streptomycin and 1% non-essential amino acids. Then, cells are washed with freshly prepared buffer B (HBSS 1×(PAA), Hepes 20 mM, MgSO4-7H2O 1 mM, Na2CO3 3.3 mM, CaCl2-2H2O 1.3 mM, 0.1% BSA, Probenecid 2.5 mM) and loaded at 37° C. in 5% CO2 for 1.5 hours with buffer B containing 1 μM Fluo4AM, 0.1 mg/mL Pluronic Acid, 7 μg/mL Glutamate Pyruvate Transaminase and 2 mM sodium pyruvate. Afterwards cells are washed twice with buffer B. Then cells are detached using StemPro Accutase (Fischer Scientific), resuspended in buffer B and seeded in 384 well plate at a density of 30,000 cells per well. Addition of compounds and intracellular Ca^2+ measurements (excitation 485 nm, emission 525 nm) are performed by the fluorescence microplate reader FLIPRTetra (Molecular Devices).
Agonist and negative allosteric modulator activities of compounds are consecutively evaluated on the same cell plate. […] Then, cells are stimulated by an EC80 glutamate concentration and fluorescence is recorded for additional 3 minutes. EC80 glutamate concentration is the concentration giving 80% of the maximal glutamate response. Agonist or negative allosteric modulator activity(ies) are evaluated in comparison to basal signals evoked by buffer B or EC80 glutamate alone, respectively.
For IC50 determination, a dose-response test is performed using 20 concentrations (ranging over 6 logs) of each compound. Dose-response curves are fitted using the sigmoidal dose-response (variable slope) analysis in GraphPad Prism program (Graph Pad Inc) and IC50 of negative allosteric modulator activity is calculated. Dose-response experiments are performed in duplicate, two times independently.
On the technique in general: Calcium flux is commonly read through the fluorescence of an indicator in the cells.
What is called pIC50 is the negative decadic logarithm of the IC50, by convention in mol/L. Turning to `Cc1cc(-c2cc3n(C)c(=O)c4ccccc4n3n2)ccn1` [Example 2, 4-methyl 2-(2-methyl-pyridin-4-yl)-4H-pyrazolo[1,5-a]quinazolin-5-one], the negative logarithm of the IC50 (pIC50) is above 6.00.

For `C=C(C)c1cc(-c2cc3n(C)c(=O)c4ccccc4n3n2)ccn1` [Example 10, 2-(2-Isopropenyl-pyridin-4-yl)-4-methyl-4H-pyrazolo[1,5-a]quinazolin-5-one], the negative logarithm of the IC50 (pIC50) was above 6.00.

For `Cn1c(=O)c2cc(Cl)ccc2n2nc(-c3ccnc(C(F)(F)F)c3)cc12` [Example 35], the pIC50 was above 6.00.

Turning to `Cn1c(=O)c2cc(Br)ccc2n2nc(-c3ccnc(C(F)(F)F)c3)cc12` [Example 39], the pIC50 is above 6.00.

In the case of `Cn1c(=O)c2ccc(Cl)cc2n2nc(-c3ccnc(C(F)(F)F)c3)cc12` [Example 56, 8-Chloro-4-methyl-2-(2-trifluoromethyl-pyridin-4-yl)-4H-pyrazolo[1,5-a]quinazolin-5-one], the negative logarithm of the IC50 (pIC50) is above 6.00.

Regarding `Cn1c(=O)c2ccc(Br)cc2n2nc(-c3ccnc(C(F)(F)F)c3)cc12` [Example 58, 8-Bromo-4-methyl-2-(2-trifluoromethyl-pyridin-4-yl)-4H-pyrazolo[1,5-a]quinazolin-5-one], the negative logarithm of the IC50 (pIC50) was above 6.00.

Turning to `CN(C)C(=O)c1ccc2c(=O)n(C)c3cc(-c4ccnc(C(F)(F)F)c4)nn3c2c1` [Example 79, 4-Methyl-5-oxo-2-(2-trifluoromethyl-pyridin-4-yl)-4,5-dihydro-pyrazolo[1,5-a]quinazoline-8-carboxylic Acid Dimethylamide], the pIC50 was above 6.00.

As for `CNc1cc2c(=O)n(C)c3cc(-c4ccnc(C(F)(F)F)c4)nn3c2cc1OC` [Example 94, 8-Methoxy-4-methyl-7-methylamino-2-(2-trifluoromethyl-pyridin-4-yl)-4H-pyrazolo[1,5-a]quinazolin-5-one], the pIC50 is above 6.00.

For the molecule `Cn1c(=O)c2cc(Cl)ccc2n2nc(-c3ccnc(Cl)c3)cc12` [Example 95, 7-Chloro-2-(2-chloro-pyridin-4-yl)-4-methyl-4H-pyrazolo[1,5-a]quinazolin-5-one], the pIC50 was above 6.00.

Consider `Cn1c(=O)c2cc(Cl)ccc2n2nc(-c3ccnc(C4CC4)c3)cc12` [Example 96], for which the negative-log IC50 (pIC50) is above 6.00.

Turning to `Cn1c(=O)c2cc(Cl)ccc2n2nc(-c3ccnc(OCC(F)(F)F)c3)cc12` [Example 98, 7-Chloro-4-methyl-2-[2-(2,2,2-trifluoro-ethoxy)-pyridin-4-yl]-4H-pyrazolo[1,5-a]quinazolin-5-one], the pIC50 is above 6.00.

As for `COc1ccc2c(c1)c(=O)n(C)c1cc(-c3ccnc(Cl)c3)nn21` [Example 99, 2-(2-Chloro-pyridin-4-yl)-7-methoxy-4-methyl-4H-pyrazolo[1,5-a]quinazolin-5-one], the pIC50 was above 6.00.

As for `COc1ccc2c(c1)c(=O)n(C)c1cc(-c3ccnc(C4CC4)c3)nn21` [Example 100, 2-(2-Cyclopropyl-pyridin-4-yl)-7-methoxy-4-methyl-4H-pyrazolo[1,5-a]quinazolin-5-one], the negative logarithm of the IC50 (pIC50) was above 6.00.

Test system in the next data set: not given
Assay: not given
Conditions: not given
The term melting point denotes the temperature, or range, at which the solid turns liquid. In turn, `Cn1c(=O)c2ccc(C3CC3)cc2n2nc(-c3ccnc(C(F)(F)F)c3)cc12` [Example 73, 8-Cyclopropyl-4-methyl-2-(2-trifluoromethyl-pyridin-4-yl)-4H-pyrazolo[1,5-a]quinazolin-5-one] came in with a melting point above 250 °C.

For the molecule `Cn1c(=O)c2ccc(C3CCCC3)cc2n2nc(-c3ccnc(C(F)(F)F)c3)cc12` [Example 74, 8-Cyclopentyl-4-methyl-2-(2-trifluoromethyl-pyridin-4-yl)-4H-pyrazolo[1,5-a]quinazolin-5-one], the melting point fell in the range of 246 to 250 °C.

`Cn1c(=O)c2ccc(C#N)cc2n2nc(-c3ccnc(C(F)(F)F)c3)cc12` [Example 75, 4-Methyl-5-oxo-2-(2-trifluoromethyl-pyridin-4-yl)-4,5-dihydro-pyrazolo[1,5-a]quinazoline-8-carbonitrile] returned a melting point above 250 °C.

The molecule `Cn1c(=O)c2ccc(C(=O)O)cc2n2nc(-c3ccnc(C(F)(F)F)c3)cc12` [Example 76, 4-Methyl-5-oxo-2-(2-trifluoromethyl-pyridin-4-yl)-4,5-dihydro-pyrazolo[1,5-a]quinazoline-8-carboxylic Acid] came in with a melting point above 250 °C.

In turn, `Cn1c(=O)c2ccc(OCCO)cc2n2nc(-c3ccnc(C(F)(F)F)c3)cc12` [Example 83, 8-(2-Hydroxy-ethoxy)-4-methyl-2-(2-trifluoromethyl-pyridin-4-yl)-4H-pyrazolo[1,5-a]quinazolin-5-one] returned a melting point of 128 to 134 °C.

Molecule `COc1cccc2c(=O)n(C)c3cc(-c4ccnc(C(F)(F)F)c4)nn3c12` [Example 86, 9-Methoxy-4-methyl-2-(2-trifluoromethyl-pyridin-4-yl)-4H-pyrazolo[1,5-a]quinazolin-5-one] registered a melting point above 250 °C.

In turn, `COc1ccc2c(c1)c(=O)n(C)c1cc(-c3ccnc(F)c3)nn21` [Example 101, 2-(2-Fluoro-pyridin-4-yl)-7-methoxy-4-methyl-4H-pyrazolo[1,5-a]quinazolin-5-one] displayed a melting point of 235 to 245 °C.

`Cn1cc(-c2cc3n(C)c(=O)c4ccccc4n3n2)cn1` [Example 103, 4-Methyl-2-(1-methyl-1H-pyrazol-4-yl)-4H-pyrazolo[1,5-a]quinazolin-5-one] gave a melting point of 195 to 199 °C.

Molecule `Cn1c(=O)c2ccccc2n2nc(-c3ccncc3F)cc12` [Example 107, 2-(3-Fluoro-pyridin-4-yl)-4-methyl-4H-pyrazolo[1,5-a]quinazolin-5-one] registered a melting point of 244 to 247 °C.

In the case of `Cc1cnccc1-c1cc2n(C)c(=O)c3ccccc3n2n1` [Example 109, 4-Methyl-2-(3-methyl-pyridin-4-yl)-4H-pyrazolo[1,5-a]quinazolin-5-one], the melting point was in the range of 145 to 150 °C.

As for `Cn1c(=O)c2ccc(OCCCO)cc2n2nc(-c3ccnc(C(F)(F)F)c3)cc12` [Example 111, 8-(3-Hydroxy-propoxy)-4-methyl-2-(2-trifluoromethyl-pyridin-4-yl)-4H-pyrazolo[1,5-a]quinazolin-5-one], the melting point fell in the range of 223 to 226 °C.

Molecule `Cn1c(=O)c2ccc(F)cc2n2nc(-c3ccnc(C4CC4)c3)cc12` [Example 112, 2-(2-Cyclopropyl-pyridin-4-yl)-8-fluoro-4-methyl-4H-pyrazolo[1,5-a]quinazolin-5-one] gave a melting point of 230 to 235 °C.

`Cn1c(=O)c2cc(F)c(N3CCC34CCC(CO)CC4)cc2n2nc(-c3ccnc(C(F)(F)F)c3)cc12` (stereo not shown) [Example 123, 7-Fluoro-8-(7-hydroxymethyl-1-aza-spiro[3.5]non-1-yl)-4-methyl-2-(2-trifluoromethyl-pyridin-4-yl)-4H-pyrazolo[1,5-a]quinazolin-5-one]: the melting point was above 250 °C.

For the molecule `Cn1c(=O)c2ccc(N3CCCC(O)C3)cc2n2nc(-c3ccnc(C(F)(F)F)c3)cc12` (stereo not shown) [Example 124, 8-(3-Hydroxy-piperidin-1-yl)-4-methyl-2-(2-trifluoromethyl-pyridin-4-yl)-4H-pyrazolo[1,5-a]quinazolin-5-one], the melting point was above 250 °C.

`Cn1c(=O)c2ccc(NCC(C)(C)O)cc2n2nc(-c3ccnc(C(F)(F)F)c3)cc12` [Example 126, 8-(2-Hydroxy-2-methyl-propylamino)-4-methyl-2-(2-trifluoromethyl-pyridin-4-yl)-4H-pyrazolo[1,5-a]quinazolin-5-one] returned a melting point above 250 °C.
